Molecules are shown by their SMILES.

Assay [1] concerns Z138 mantle cell lymphoma tumour cell lines. In words: In vitro cytotoxicity, MTT assay. The note with it: Homo sapiens, Z-138; Z138 cells, exposed to the test compounds for 96 hours. Type of assay: cell-based. The procedure, abridged:
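Z138 cells exposed to compounds for 96 hours, then MTT added for 4 hours. Formazan absorbance at 540 nm serves as the measure of viable cell number.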
Background: Formazan colour is commonly taken as a measure of viable cells.

A further assay addresses T1, USP7 (Homo sapiens, UniProt Q93009, C315A).
T1 construct: 0.25 nM His-His-USP7 (aa208-560, |C315A|) was incubated with compound; His-His (N)
Description: Inhibition of USP7 by Fluorescence Intensity (FLINT) readings, Ubiquitin-Rhodamine-110 substrate. Type of assay: biochemical. The note with it: 0.25 nM His-His-USP7 (aa208-560), 60 minutes at 30° C. preincubation; Ki determined from IC50 according to Cer et al. An outline of the steps: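 His-tagged USP7 (aa208-560, C315A), 0.25 nM, preincubated with compound 60 min at 30 °C in 100 mM Bicine pH 8.0, 0.01% Triton X-100, 1 mM TCEP, 10% DMSO. Ubiquitin-Rhodamine-110 (50 nM or 4 μM) added; kinetic fluorescence (Ex 485/Em 535 nm) over 21 min; IC50 from 11-point curves, Ki derived from IC50.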

T1 sequence (Q93009 208-560 C315A): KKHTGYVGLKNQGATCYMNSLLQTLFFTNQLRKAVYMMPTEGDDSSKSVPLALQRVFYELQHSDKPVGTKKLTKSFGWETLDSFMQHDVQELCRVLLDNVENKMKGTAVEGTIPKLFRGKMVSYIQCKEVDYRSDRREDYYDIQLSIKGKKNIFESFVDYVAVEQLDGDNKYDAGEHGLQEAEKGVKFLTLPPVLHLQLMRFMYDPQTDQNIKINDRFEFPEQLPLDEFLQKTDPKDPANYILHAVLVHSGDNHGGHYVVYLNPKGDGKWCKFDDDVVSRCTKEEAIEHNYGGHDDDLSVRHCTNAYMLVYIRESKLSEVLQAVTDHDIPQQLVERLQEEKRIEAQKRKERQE

For the molecule `Cc1cc(C)nc(CN2CC[C@@H](C(=O)N3CC[C@](O)(Cn4cnc(Oc5ccc(F)cc5)c(N)c4=O)C(F)(F)C3)[C@H](c3ccccc3)C2)n1` [Example 206, 5-amino-3-[[(4S)-1-[(3R,4R)-1-[(4,6-dimethylpyrimidin-2-yl)methyl]-3-phenyl-piperidine-4-carbonyl]-3,3-difluoro-4-hydroxy-4-piperidyl]methyl]-6(4-fluorophenoxy)pyrimidin-4-one], the IC50 (commonly the concentration at which inhibition is half-maximal) in assay [1] came out at 20.5 nM. In addition, the Ki (as a rule, the dissociation constant of the complex between target and ligand, obtained from inhibition or displacement) at USP7 is 37.2 nM.
For `Cc1cncc(CN2CC[C@@H](C(=O)N3CC[C@](O)(Cn4cnc(Oc5ccc(F)cc5)c(N)c4=O)C(F)(F)C3)[C@H](c3ccccc3)C2)n1` [Example 207, 5-amino-3-[[(4S)-3,3-difluoro-4-hydroxy-1-[(3R,4R)-1-[(6-methylpyrazin-2-yl)methyl]-3-phenyl-piperidine-4-carbonyl]-4-piperidyl]methyl]-6-(4-fluorophenoxy)pyrimidin-4-one], in that order: 11.8 nM and 27.4 nM.
For `Cc1ccc(-c2nc(C)c(C(=O)N3CC[C@@H](C(=O)N4CC[C@](O)(Cn5cnc(Oc6ccc(CN)cc6)c(N)c5=O)C(F)(F)C4)[C@H](c4ccccc4)C3)s2)cn1` [Example 210], in that order: 1.85 nM and 0.215 nM.
`Cc1nccnc1CN1CC[C@@H](C(=O)N2CC[C@](O)(Cn3cnc(Oc4ccc(F)cc4)c(N)c3=O)C(F)(F)C2)[C@H](c2ccccc2)C1` [Example 211, 5-amino-3-[[(4S)-3,3-difluoro-4-hydroxy-1-[(3R,4R)-1-[(3-methylpyrazin-2-yl)methyl]-3-phenyl-piperidine-4-carbonyl]-4-piperidyl]methyl]-4(4-fluorophenoxy)pyrimidin-4-one] came in with an IC50 in assay [1] of 24.9 nM. Further, the Ki on USP7 is 27.7 nM.
Molecule `Nc1c(Oc2ccc(F)cc2)ncn(C[C@@]2(O)CCN(C(=O)[C@@H]3CCN(Cc4ccncn4)C[C@H]3c3ccccc3)CC2(F)F)c1=O` [Example 212, 5-amino-3-[[(4S)-3,3-difluoro-4-hydroxy-1-[(3R,4R)-3-phenyl-1-(pyrimidin-4-ylmethyl)piperidine-4-carbonyl]-4-piperidyl]methyl]-6-(4-fluorophenoxy)pyrimidin-4-one] displayed an IC50 in assay [1] of 21.4 nM. On USP7, this molecule gave a Ki of 34.1 nM.
For `COc1cc(Oc2ncn(C[C@@]3(O)CCN(C(=O)[C@@H]4CCN(Cc5cnccn5)C[C@H]4c4ccccc4)CC3(F)F)c(=O)c2N)ccc1F` [Example 213, 5-amino-3-[[(4S)-3,3-difluoro-4-hydroxy-1-[(3R,4R)-3-phenyl-1-(pyrazin-2-ylmethyl)piperidine-4-carbonyl]-4-piperidyl]methyl]-6-(4-fluoro-3-methoxy-phenoxy)pyrimidin-4-one], in that order: 15.6 nM and 36.4 nM.
Taken in the same sequence, the figures for `COc1cc(Oc2ncn(C[C@@]3(O)CCN(C(=O)[C@@H]4CCN(Cc5cccnn5)C[C@H]4c4ccccc4)CC3(F)F)c(=O)c2N)ccc1F` [Example 214] were 31.3 nM and 48.3 nM.
Taken in the same sequence, the figures for `COc1cc(Oc2ncn(C[C@@]3(O)CCN(C(=O)[C@@H]4CCN(Cc5ncccn5)C[C@H]4c4ccccc4)CC3(F)F)c(=O)c2N)ccc1F` [Example 215, 5-amino-3-[[(4S)-3,3-difluoro-4-hydroxy-1-[(3R,4R)-3-phenyl-1-(pyrimidin-2-ylmethyl)piperidine-4-carbonyl]-4-piperidyl]methyl]-6-(4-fluoro-3-methoxy-phenoxy)pyrimidin-4-one] were 24.6 nM and 54.1 nM.
In assay [1], `COc1cc(Oc2ncn(C[C@@]3(O)CCN(C(=O)[C@@H]4CCN(Cc5nccc(C)n5)C[C@H]4c4ccccc4)CC3(F)F)c(=O)c2N)ccc1F` [Example 216] returned an IC50 of 19.1 nM. The molecule further gave a Ki on USP7 of 25.7 nM.
Taken in the same sequence, the figures for `COc1cc(Oc2ncn(C[C@@]3(O)CCN(C(=O)[C@@H]4CCN(Cc5nc(C)cc(C)n5)C[C@H]4c4ccccc4)CC3(F)F)c(=O)c2N)ccc1F` [Example 217] were 23.1 nM and 42.6 nM.
Taken in the same sequence, the figures for `COc1cc(Oc2ncn(C[C@@]3(O)CCN(C(=O)[C@@H]4CCN(Cc5cncc(C)n5)C[C@H]4c4ccccc4)CC3(F)F)c(=O)c2N)ccc1F` [Example 218, 5-amino-3-[[(4S)-3,3-difluoro-4-hydroxy-1-[(3R,4R)-1-[(6-methylpyrazin-2-yl)methyl]-3-phenyl-piperidine-4-carbonyl]-4-piperidyl]methyl]-6-(4-fluoro-3-methoxy-phenoxy)pyrimidin-4-one] were 11.5 nM and 30.1 nM.
For `COc1cc(Oc2ncn(C[C@@]3(O)CCN(C(=O)[C@@H]4CCN(Cc5nccnc5C)C[C@H]4c4ccccc4)CC3(F)F)c(=O)c2N)ccc1F` [Example 219, 5-amino-3-[[(4S)-3,3-difluoro-4-hydroxy-1-[(3R,4R)-1-[(3-methylpyrazin-2-yl)methyl]-3-phenyl-piperidine-4-carbonyl]-4-piperidyl]methyl]-6-(4-fluoro-3-methoxy-phenoxy)pyrimidin-4-one], in that order: 23.4 nM and 30.3 nM.
As to `Cc1cnc(CN2CC[C@@H](C(=O)N3CC[C@](O)(Cn4cnc(Oc5ccc(Cl)cc5)c(N)c4=O)C(F)(F)C3)[C@H](c3ccccc3)C2)cn1` [Example 221, 5-amino-6-(4-chlorophenoxy)-3-[[(4S)-3,3-difluoro-4-hydroxy-1-[(3R,4R)-1-[(5-methylpyrazin-2-yl)methyl]-3-phenyl-piperidine-4-carbonyl]-4-piperidyl]methyl]pyrimidin-4-one], half-maximal inhibition in assay [1] (IC50) was put at 10.2 nM. The same molecule registered a Ki at USP7 of 35.5 nM.
Taken in the same sequence, the figures for `NCc1ccc(Oc2ncn(C[C@@]3(O)CCN(C(=O)[C@@H]4CCN(C(=O)c5cc(Cl)cc(Cl)c5)C[C@H]4c4ccccc4)CC3(F)F)c(=O)c2N)cc1` [Example 222, 5-amino-6-[4-(aminomethyl)phenoxy]-3-[[(4S)-1-[(3R,4R)-1-(3,5-dichlorobenzoyl)-3-phenyl-piperidine-4-carbonyl]-3,3-difluoro-4-hydroxy-4-piperidyl]methyl]pyrimidin-4-one] were 74.2 nM and 0.558 nM.
`Cc1ccc(-c2nc(C)c(C(=O)N3CC[C@@H](C(=O)N4CCC(O)(Cn5cnc(Oc6ccc(CNC(=O)OC(C)(C)C)cc6)c(N)c5=O)CC4)[C@H](c4ccccc4)C3)s2)cn1` [Example 223, tert-butyl N-[[4-[5-amino-1-[[4-hydroxy-1-[(3R,4R)-1-[4-methyl-2-(6-methyl-3-pyridyl)thiazole-5-carbonyl]-3-phenyl-piperidine-4-carbonyl]-4-piperidyl]methyl]-6-oxo-pyrimidin-4-yl]oxyphenyl]methyl]carbamate]: the midpoint of inhibition in assay [1], the IC50, lay at 73.2 nM. On USP7, this molecule had a Ki of 4.2 nM.

(Values after patent US20210355106A1, “NEW AMINO-PYRIMIDONYL-PIPERIDINYL DERIVATIVES, A PROCESS FOR THEIR PREPARATION AND PHARMACEUTICAL COMPOSITIONS CONTAINING THEM” (LES LABORATOIRES SERVIER, priority 2018, published 2021).)
